*1 amine or outer side, *2 acyl side, *3 side chain or, on linkers, in order; H or OH if unused. Where a SMILES comes first, the peptide text is derived from it. Bridges are numbered along the chain shown (N, C = ends). Roman numbers before positions name the chains, in order. [ ]: non-standard residue; d: D form. Actinocin(9to1) = Cc1c2oc3c(C)ccc(C(=O)[*:1])c3nc-2c(C(=O)[*:2])c(N)c1=O; NMeV = CN[C@H](C(=O)O)C(C)C; Sar = CNCC(=O)O
Experiments:
LINE1 RNAs [1] = test: LINE1 RNA FISH in naïve CD4+ T-cells treated with 3TC retrotranscriptase inhibitor; assay type: cell-based, human; conditions: versus vehicle (DMSO)
Experimental: Briefly, antisense biotinylated riboprobes for LINE1, AluY and HERVK were in vitro transcribed using MAXIscript T7 transcription kit (Invitrogen) and Biotin RNA labeling mix (Roche). 50-100 ng of antisense biotinylated riboprobes per experiment were used. 3% paraformaldehyde (PFA) fixed T-cells were washed with 0.05% Triton-X-100 in PBS, permeabilized with 0.5% Triton-X-100 in PBS and maintained in 20% glycerol/PBS.
To quantify mean fluorescence intensity of RNA signal in 3D reconstructed nuclei, images were analyzed with NIS-Elements Software (by Nikon). In the “General Analysis” a mask on DAPI signals was generated to identify single nuclei, and then a “3D measurement” of RNA signals in every nucleus was performed. To measure the colocalization of RNA and histone mark signals was used ImageJ Software to control the Pearson Correlation through the command “Colocalization Threshold” for every nucleus.

mTORC1 = mTORC1 (Homo sapiens, UniProt P42345+P62942); test: LINE1 expression in memory CD4+ T-cells from blood of patients treated with mTORC1 inhibitors; conditions: memory CD4+ T-cells from blood of kidney transplanted patients treated with Everolimus, versus healthy individuals
LINE1 RNAs [2] = test: Actinomycin D treatment of quiescent naïve CD4+ T-cells, LINE1 expression by qRT-PCR; assay type: cell-based, human; conditions: Actinomycin D 5 μg/mL, 16 h
Experimental: Quiescent naïve CD4^+ T-cells were treated for 16 h with Actinomycin D 5 μg/mL (Merck; cat. num. A9415) as reported in^68. TCR signaling pathway inhibition was performed using the following immunosuppressive drugs: Rapamycin (100 nM; Merck; cat. num. R8781) for mTORC1, Ciclosporin A (0,5 μg/mL; Merck; cat. num. C3662) for Calcineurin pathway, Dexamethasone (1 μM; Merck; cat. num. D4902) for NF-κB pathway. Quiescent naïve CD4^+ T-cells were pretreated for 2 hours with the overmentioned drugs, then stimulated with Dynabeads Human T-activator anti-CD3/anti-CD28 beads in Th1 medium, in the presence of the different inhibitors; T-cells were collected 2, 4, 8 h post activation. Otherwise, naïve CD4^+ T-cells activated and cultured in Th1 medium for 72 h were treated for 48 h with the drugs. Treated cells were controlled for their vitality and treatment efficacy was assessed.

`Nc1ccn([C@@H]2CS[C@H](CO)O2)c(=O)n1` [3TC] was tested, and the “staining of LINE1 RNAs (RNA-FISH)” value (LINE1 RNAs [1]) was “completely unchanged”.

In the case of `CO[C@H]1C[C@@H]2CC[C@@H](C)[C@@](O)(O2)C(=O)C(=O)N2CCCC[C@H]2C(=O)O[C@H]([C@H](C)C[C@@H]2CC[C@@H](OCCO)[C@H](OC)C2)CC(=O)[C@H](C)/C=C(\C)[C@@H](O)[C@@H](OC)C(=O)[C@H](C)C[C@H](C)/C=C/C=C/C=C/1C` [Everolimus], the “LINE1 RNAs expression” value (mTORC1) was “re-express LINE1 RNAs”.

For `Cc1c2oc3c(C)ccc(C(=O)N[C@@H]4C(=O)N[C@H](C(C)C)C(=O)N5CCC[C@H]5C(=O)N(C)CC(=O)N(C)[C@@H](C(C)C)C(=O)O[C@@H]4C)c3nc-2c(C(=O)N[C@@H]2C(=O)N[C@H](C(C)C)C(=O)N3CCC[C@H]3C(=O)N(C)CC(=O)N(C)[C@@H](C(C)C)C(=O)O[C@@H]2C)c(N)c1=O` [actinomycin D, Actinomycin D] (I: T[dV]P[Sar][NMeV] / II: T[dV]P[Sar][NMeV]; ester I:1-I:C, II:1-II:C; linker I:N-II:N via Actinocin(9to1)), the “LINE1 RNAs levels” value (LINE1 RNAs [2]) was “moderately affect”.

From patent publication US20230272399A1, “INHIBITORS OF LINE1 AND USES THEREOF” (T-ONE THERAPEUTICS S.R.L., priority 2020, published 2023)
